Experimental data: US11180490B2, “Cyclopropyl urea formyl peptide 2 receptor and formyl peptide 1 receptor agonists” (BRISTOL-MYERS SQUIBB COMPANY, priority 2017, dated 2021)

What was measured:
[1] = target: T1, human FPR1 (Homo sapiens, UniProt P21462); assay: FPR1 cyclic adenosine monophosphate (cAMP) assay; format: cell-based; conditions: CHO cells overexpressing human FPR1; inhibition of forskolin-stimulated cAMP production; read-out: hFPR1 cAMP EC50
T1 sequence (P21462 1-350): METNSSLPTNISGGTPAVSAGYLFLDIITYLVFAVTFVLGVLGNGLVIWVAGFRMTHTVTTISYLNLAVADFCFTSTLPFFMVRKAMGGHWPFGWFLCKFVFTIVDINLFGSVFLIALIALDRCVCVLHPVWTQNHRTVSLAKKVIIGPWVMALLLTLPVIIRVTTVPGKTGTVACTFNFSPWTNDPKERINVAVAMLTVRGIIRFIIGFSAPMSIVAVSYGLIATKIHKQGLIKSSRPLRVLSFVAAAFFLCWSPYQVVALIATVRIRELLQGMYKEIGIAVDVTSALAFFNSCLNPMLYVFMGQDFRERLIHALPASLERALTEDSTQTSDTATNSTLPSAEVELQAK
Protocol: (§1) FPR2 and FPR1 Cyclic Adenosine Monophosphate (cAMP) Assays. A mixture of forskolin (5 μM final for FPR2 or 10 μM final for FPR1) and IBMX (200 μM final) were added to 384-well Proxiplates (Perkin-Elmer) pre-dotted with test compounds in DMSO (1% final) at final concentrations in the range of 1.7 nM to 100 μM. Chinese Hamster Ovary cells (CHO) overexpressing human FPR1 or human FPR2 receptors were cultured in F-12 (Ham's) medium supplemented with 10% qualified FBS, 250 μg/ml zeocin and 300 μg/ml hygromycin (Life Technologies). Reactions were initiated by adding 2,000 human FPR2 cells per well or 4,000 human FPR1 cells per well in Dulbecco's PBS (with calcium and magnesium) (Life Technologies) supplemented with 0.1% BSA (Perkin-Elmer). The reaction mixtures were incubated for 30 min at room temperature. The level of intracellular cAMP was determined using the HTRF HiRange cAMP assay reagent kit (Cisbio) according to manufacturer's instruction. Solutions of cryptate conjugated anti-cAMP and d2 flurorophore-labelled cAMP were made in a supplied lysis buffer separately. Upon completion of the reaction, the cells were lysed with equal volume of the d2-cAMP solution and anti-cAMP solution. After a 1-h room temperature incubation, time-resolved fluorescence intensity was measured using the Envision (Perkin-Elmer) at 400 nm excitation and dual emission at 590 nm and 665 nm. A calibration curve was constructed with an external cAMP standard at concentrations ranging from 1 μM to 0.1 pM by plotting the fluorescent intensity ratio from 665 nm emission to the intensity from the 590 nm emission against cAMP concentrations. The potency and activity of a compound to inhibit cAMP production was then determined by fitting to a 4-parametric logistic equation from a plot of cAMP level versus compound concentrations.

[2] = target: T2, human FPR2 (Homo sapiens, UniProt P25090); assay: FPR2 cyclic adenosine monophosphate (cAMP) assay; format: cell-based; conditions: CHO cells overexpressing human FPR2; inhibition of forskolin-stimulated cAMP production; read-out: hFPR2 cAMP2 EC50
T2 sequence (P25090 1-351): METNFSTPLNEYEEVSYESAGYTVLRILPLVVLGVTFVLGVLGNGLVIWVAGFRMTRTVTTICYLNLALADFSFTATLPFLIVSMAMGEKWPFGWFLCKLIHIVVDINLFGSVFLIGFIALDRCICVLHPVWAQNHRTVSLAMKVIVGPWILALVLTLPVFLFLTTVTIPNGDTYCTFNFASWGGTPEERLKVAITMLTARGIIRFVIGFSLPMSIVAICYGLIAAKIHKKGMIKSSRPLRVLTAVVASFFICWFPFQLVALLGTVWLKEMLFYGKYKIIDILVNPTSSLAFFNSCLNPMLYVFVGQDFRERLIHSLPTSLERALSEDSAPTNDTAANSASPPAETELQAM
Protocol: as §1

Structure (SMILES)	EC50 [1]	EC50 [2]
COc1cc(F)c([C@@H]2CNC(=O)[C@H]2NC(=O)NC2(c3ccc(Cl)c(C)n3)CC2)c(F)c1 [Example 47, 3-[1-(5-chloro-6-methylpyridin-2-yl)cyclopropyl]-1-[(3S,4R)-4-(2.6-difluoro-4-methoxyphenyl)-2-oxopyrrolidin-3-yl]urea]	270 nM	2.3 nM
COc1cc(F)c([C@@H]2CNC(=O)[C@H]2NC(=O)NC2(c3ccc4ncccc4n3)CC2)c(F)c1 [Example 4, 1-[(3S,4R)-4-(2,6-difluoro-4-methoxyphenyl)-2-oxopyrrolidin-3-yl]-3-[1-(1,5-naphthyridin-2-yl)cyclopropyl]urea]	1000 nM	110 nM
COc1cc(F)c([C@@H]2CN(CCO)C(=O)[C@H]2NC(=O)NC2(c3ccc4ccccc4n3)CC2)c(F)c1 [Example 67, 1-[(3S,4R)-4-(2,6-difluoro-4-methoxyphenyl)-1-(2-hydroxyethyl)-2-oxopyrrolidin-3-yl]-3-[1-(quinolin-2-yl)cyclopropyl]urea]	700 nM	63 nM
COc1cc(F)c([C@@H]2CNC(=O)[C@H]2NC(=O)NC2(c3cccc(OCc4ccc5ccccc5c4)c3)CC2)c(F)c1 [Example 131, 1-[(3S,4R)-4-(2,6-difluoro-4-methoxyphenyl)-2-oxopyrrolidin-3-yl]-3-(l-{3-[(naphthalen-2-yl)methoxy]phenyl}cyclo-propyl)urea]	1000 nM	4 nM
COc1cc(F)c([C@@H]2CN(C)C(=O)[C@H]2NC(=O)NC2(c3ccc4ccccc4n3)CC2)c(F)c1 [Example 8, 1-[(3S,4R)-4-(2,6-difluoro-4-methoxyphenyl)-1-methyl-2-oxopyrrolidin-3-yl]-3-[1-(quinolin-2-yl)cyclopropyl]urea]	66 nM	5.7 nM
COc1cc(F)c([C@@H]2CNC(=O)[C@H]2NC(=O)NC2(c3cccc(Cl)n3)CC2)c(F)c1 [Example 1, 3-[1-(6-chloropyridin-2-yl)cyclopropyl]-1-[(3S,4R)-4-(2,6-difluoro-4-methoxyphenyl)-2-oxopyrrolidin-3-yl]urea]	820 nM	8.3 nM
COc1cc(F)c([C@@H]2CNC(=O)[C@H]2NC(=O)NC2(c3nc4c(C(F)(F)F)cccc4s3)CC2)c(F)c1 [Example 96, 1-[(3S,4R)-4-(2,6-difluoro-4-methoxyphenyl)-2-oxopyrrolidin-3-yl]-3-{1-[4-(trifluoromethyl)-1,3-benzothiazol-2-yl]cyclopropyl}urea]	120 nM	2 nM
CCCN1C[C@@H](c2c(F)cc(OC)cc2F)[C@H](NC(=O)NC2(c3ccc4ccccc4n3)CC2)C1=O [Example 95, 1-[(3S,4R)-4-(2,6-difluoro-4-methoxyphenyl)-2-oxo-1-propylpyrrolidin-3-yl]-3-[1-(quinolin-2-yl)cyclopropyl]urea]	19 nM	1.7 nM
COc1cc(F)c([C@@H]2CNC(=O)[C@H]2NC(=O)NC2(c3ccc4cc(Cl)ccc4n3)CC2)c(F)c1 [Example 53, 3-[1-(6-chloroquinolin-2-yl)cyclopropyl]-1-[(3S,4R)-4-(2,6-difluoro-4-methoxyphenyl)-2-oxopyrrolidin-3-yl]urea]	430 nM	12 nM
COc1cc(F)c([C@@H]2CN(CC(F)(F)F)C(=O)[C@H]2NC(=O)NC2(c3cccc(C)n3)CC2)c(F)c1 [Example 110, 1-[(3S,4R)-4-(2,6-difluoro-4-methoxyphenyl)-2-oxo-1-(2,2,2-trifluoroethyl)pyrrolidin-3-yl]-3-[1-(6-methylpyridin-2-yl)cyclopropyl]urea]	150 nM	14 nM
COc1ccc([C@@H]2CNC(=O)[C@H]2NC(=O)NC2(c3cccc(Cl)n3)CC2)c(F)c1 [Example 48, 3-[1-(6-chloropyridin-2-yl)cyclopropyl]-1-[(3S,4R)-4-(2-fluoro-4-methoxyphenyl)-2-oxopyrrolidin-3-yl]urea]	140 nM	9.7 nM

Now from value to compound:

EC50 [1]	EC50 [2]	Structure (SMILES)
1500 nM	34 nM	COc1cc(F)c([C@@H]2CNC(=O)[C@H]2NC(=O)NC2(c3ccc4cc(OC)ccc4c3)CC2)c(F)c1 [Example 63, 1-[(3S,4R)-4-(2,6-difluoro-4-methoxyphenyl)-2-oxopyrrolidin-3-yl]-3-[1-(6-methoxynaphthalen-2-yl)cyclopropyl]urea]
200 nM	1.7 nM	COc1cc(F)c([C@@H]2CNC(=O)[C@H]2NC(=O)NC2(c3ccc(C)c(Cl)c3)CC2)c(F)c1 [Example 50, 3-[1-(3-chloro-4-methylphenyl)cyclopropyl]-1-[(3S,4R)-4-(2,6-difluoro-4-methoxyphenyl)-2-oxopyrrolidin-3-yl]urea]
280 nM	25 nM	COc1cc(F)c([C@@H]2CN(Cc3nnc(C)o3)C(=O)[C@H]2NC(=O)NC2(c3cccc(C)n3)CC2)c(F)c1 [Example 115]
1600 nM	12 nM	COc1cc(F)c([C@@H]2CNC(=O)[C@H]2NC(=O)NC2(c3nc4ccc(C)cc4s3)CC2)c(F)c1 [Example 85, 1-[(3S,4R)-4-(2,6-difluoro-4-methoxyphenyl)-2-oxopyrrolidin-3-yl]-3-[1-(6-methyl-1,3-benzothiazol-2-yl)cyclopropyl]urea]
320 nM	6.4 nM	COc1cc(F)c([C@@H]2CNC(=O)[C@H]2NC(=O)NC2(c3ccc4ccccc4n3)CC2)c(F)c1 [Example 26, 1-[(3S,4R)-4-(2,6-difluoro-4-methoxyphenyl)-2-oxopyrrolidin-3-yl]-3-[1-(quinolin-2-yl)cyclopropyl]urea]
2300 nM	49 nM	COc1cc(F)c([C@@H]2CNC(=O)[C@H]2NC(=O)NC2(c3cccc(C(F)(F)F)c3)CC2)c(F)c1 [Example 19, 1-[(3S,4R)-4-(2,6-difluoro-4-methoxyphenyl)-2-oxopyrrolidin-3-yl]-3-{1-[3-(trifluoro-methyl)phenyl]cyclo-propyl}urea]
26 nM	1.5 nM	COc1cc(F)c([C@@H]2CN(CC3CC3)C(=O)[C@H]2NC(=O)NC2(c3cccc(C)n3)CC2)c(F)c1 [Example 94, 1-((3S,4R)-1-(cyclopropylmethyl)-4-(2,6-difluoro-4-methoxyphenyl)-2-oxopyrrolidin-3-yl)-3-(1-(6-methylpyridin-2-yl)cyclopropyl)urea]
660 nM	33 nM	COc1cc(F)c([C@@H]2CNC(=O)[C@H]2NC(=O)NC2(c3ccc(C)cc3)CC2)c(F)c1 [Example 2, 1-[(3S,4R)-4-(2,6-difluoro-4-methoxyphenyl)-2-oxopyrrolidin-3-yl]-3-[1-(4-methylphenyl)cyclopropyl]urea]
